Measured values as given in patent US20140134261A1 (priority 2012, published 2014).
Where two headings read alike, the source gives them in different places.

What was measured:
NF-κ-B = settings: pretreatment of human myeloid ML-1a cells; cited from earlier work
macrophages = settings: preincubation with 10 μM; cited from earlier work
[1] = in vitro; cited from earlier work
[2] = test system: Rat peritoneal macrophages; settings: 10 μM, pre-incubated 1 h; cited from earlier work
[3] = humans, after ingestion of 26.6 mg of capsaicin; cited from earlier work
[4] = test system: cytochrome (CYP) enzymes present in the human liver; settings: in vitro; cited from earlier work
[5] = male rats, diet with 30% lard, capsaicin at 0.14% of the diet; cited from earlier work
[6] = test system: PC-3 prostate cancer xenografts; settings: given orally; cited from earlier work
TRPV1 receptor = TRPV1 receptor (Homo sapiens, UniProt Q8NER1); settings: cited from earlier work
[7] = 1 mg/kg systemic, before cecal ligation and puncture, late sepsis period; cited from earlier work
μ-opiate receptor = μ-opiate receptor (Homo sapiens, UniProt P35372); settings: cited from earlier work
Chain of μ-opiate receptor (P35372 whole entry): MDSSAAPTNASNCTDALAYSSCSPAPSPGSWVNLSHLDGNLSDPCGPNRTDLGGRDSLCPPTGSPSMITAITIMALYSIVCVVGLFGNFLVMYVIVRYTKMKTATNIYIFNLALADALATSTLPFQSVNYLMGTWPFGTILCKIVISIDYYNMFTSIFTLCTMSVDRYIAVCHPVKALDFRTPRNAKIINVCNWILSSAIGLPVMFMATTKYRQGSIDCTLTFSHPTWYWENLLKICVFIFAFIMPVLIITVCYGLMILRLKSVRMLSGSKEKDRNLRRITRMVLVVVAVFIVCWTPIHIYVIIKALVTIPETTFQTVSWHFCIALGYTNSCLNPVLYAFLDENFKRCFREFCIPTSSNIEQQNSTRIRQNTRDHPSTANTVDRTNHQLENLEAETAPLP

Chain of TRPV1 receptor (Q8NER1 whole entry): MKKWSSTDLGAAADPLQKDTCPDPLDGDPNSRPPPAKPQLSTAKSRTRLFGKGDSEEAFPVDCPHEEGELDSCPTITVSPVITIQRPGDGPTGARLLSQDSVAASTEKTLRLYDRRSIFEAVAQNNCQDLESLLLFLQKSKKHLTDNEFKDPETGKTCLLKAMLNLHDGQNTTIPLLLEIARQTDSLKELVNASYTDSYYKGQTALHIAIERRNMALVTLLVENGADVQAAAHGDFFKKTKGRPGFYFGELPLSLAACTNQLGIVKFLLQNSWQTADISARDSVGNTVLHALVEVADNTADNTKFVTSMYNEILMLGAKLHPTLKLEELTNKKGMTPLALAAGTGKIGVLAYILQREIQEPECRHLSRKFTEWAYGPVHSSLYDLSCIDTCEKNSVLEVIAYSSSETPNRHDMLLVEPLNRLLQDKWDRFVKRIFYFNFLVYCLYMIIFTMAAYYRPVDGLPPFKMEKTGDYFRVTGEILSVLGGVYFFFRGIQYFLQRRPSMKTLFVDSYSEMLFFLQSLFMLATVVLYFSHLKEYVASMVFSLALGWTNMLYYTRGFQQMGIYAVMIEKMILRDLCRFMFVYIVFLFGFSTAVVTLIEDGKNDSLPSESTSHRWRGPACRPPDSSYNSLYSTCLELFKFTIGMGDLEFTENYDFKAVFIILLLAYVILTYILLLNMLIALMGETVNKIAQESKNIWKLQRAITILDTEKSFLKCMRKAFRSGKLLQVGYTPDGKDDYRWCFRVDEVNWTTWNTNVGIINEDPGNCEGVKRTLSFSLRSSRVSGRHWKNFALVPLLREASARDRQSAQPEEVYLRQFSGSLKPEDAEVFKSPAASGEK

Q: Which “duration of pain at the site of application” value (about 1 gram of 8% capsaicin ointment on forehand) does the source give for COc1cc(CNC(=O)CCCCC=CC(C)C)ccc1O [capsaicin, 8-methyl-N-vanillyl-6-nonenamide] here?
A: ~48 h

Q: And the “burning sensation at the site of application” value (about 1 gram ointment (14.25% capsaicin palmitate or 8% capsaicin) on forehand, six healthy volunteers, asked after 30 minutes)?
A: intense burning

Q: And the “duration of pain and inflammation” value (application of 8% capsaicin)?
A: almost a day

Q: And the “time to intense pain at the site of application” value (application of 8% capsaicin)?
A: ≤ 15 min

Q: What about the “burning pain at the site of application” value (topical ointment, about 14.25% capsaicin palmitate (about 8% of capsaicin) or 8% capsaicin, no topical anesthetic) of the same molecule?
A: intense pain

Q: What about the “TNF-mediated activation of NF-κ-B” value (NF-κ-B) of the same molecule?
A: blocked

Q: What about the “superoxide anions, hydrogen peroxide, and nitrite radical production” value (macrophages) of the same molecule?
A: completely inhibited

Q: And the “metabolism in human skin” value [1]?
A: quite slow

Q: And the “inhibition of incorporation of arachidonic acid into membrane lipids” value [2]?
A: 76%

Q: What about the “inhibition of leukotriene B4” value [2] of the same molecule?
A: 46%

Q: And the “inhibition of leukotriene C4” value [2]?
A: 48%

Q: What about the “inhibition of prostaglandin E2” value [2] of the same molecule?
A: 48%

Q: And the Cmax [3]?
A: 2.5 (0.1) ng ml^−1

Q: And the Tmax [3]?
A: 47.1 (2.0) min

Q: And the “metabolism by CYP enzymes in the human liver” value [4]?
A: metabolized rapidly

Q: And the “serum triglyceride levels versus high-fat diet without capsaicin” value [5]?
A: significantly lower

Q: And the “growth of xenografts as measured by size” value [6]?
A: significantly slowed

Q: And the “affinity as exogenous agonist for the TRPV1 receptor” value (TRPV1 receptor)?
A: low nanomolar affinity

Q: What about the “lipid peroxidation in various tissues, including lung and liver” value [7] of the same molecule?
A: decreased

Q: What does the source list for “Palmitoyl Ester of Capsaicin USP (Formula I, R=—(CH2)14—CH3) [capsaicin palmitate]”?
A: burning pain at the site of application (human, in vivo): almost no burning pain; burning sensation at the site of application (human, in vivo): did not cause any burning sensation

Q: For 0-desmethyltramadol [Example M1], which “analgesic potency relative to the parent drug tramadol” value (μ-opiate receptor) is on record?
A: at least twice the analgesic potency
